In ChEMBL document CHEMBL1131653, “Syntheses of D- and L-myo-inositol 1,2,4,5-tetrakisphosphate and stereoselectivity of the I(1,4,5)P3 receptor binding” (Bioorg Med Chem Lett, 1998):

Target: Inositol 1,4,5-trisphosphate-gated calcium channel ITPR3 (Bos taurus, UniProt Q8WN95)
Assay: Binding affinity towards Inositol 1,4,5-trisphosphate receptor was evaluated by the standard competitive binding assay using 1.25 nM [3H]D-I(1,4,5)P3 binding protein, prepared from bovine adrenal cortex
Format: tissue-based

Chain of Inositol 1,4,5-trisphosphate-gated calcium channel ITPR3 (Q8WN95 whole entry): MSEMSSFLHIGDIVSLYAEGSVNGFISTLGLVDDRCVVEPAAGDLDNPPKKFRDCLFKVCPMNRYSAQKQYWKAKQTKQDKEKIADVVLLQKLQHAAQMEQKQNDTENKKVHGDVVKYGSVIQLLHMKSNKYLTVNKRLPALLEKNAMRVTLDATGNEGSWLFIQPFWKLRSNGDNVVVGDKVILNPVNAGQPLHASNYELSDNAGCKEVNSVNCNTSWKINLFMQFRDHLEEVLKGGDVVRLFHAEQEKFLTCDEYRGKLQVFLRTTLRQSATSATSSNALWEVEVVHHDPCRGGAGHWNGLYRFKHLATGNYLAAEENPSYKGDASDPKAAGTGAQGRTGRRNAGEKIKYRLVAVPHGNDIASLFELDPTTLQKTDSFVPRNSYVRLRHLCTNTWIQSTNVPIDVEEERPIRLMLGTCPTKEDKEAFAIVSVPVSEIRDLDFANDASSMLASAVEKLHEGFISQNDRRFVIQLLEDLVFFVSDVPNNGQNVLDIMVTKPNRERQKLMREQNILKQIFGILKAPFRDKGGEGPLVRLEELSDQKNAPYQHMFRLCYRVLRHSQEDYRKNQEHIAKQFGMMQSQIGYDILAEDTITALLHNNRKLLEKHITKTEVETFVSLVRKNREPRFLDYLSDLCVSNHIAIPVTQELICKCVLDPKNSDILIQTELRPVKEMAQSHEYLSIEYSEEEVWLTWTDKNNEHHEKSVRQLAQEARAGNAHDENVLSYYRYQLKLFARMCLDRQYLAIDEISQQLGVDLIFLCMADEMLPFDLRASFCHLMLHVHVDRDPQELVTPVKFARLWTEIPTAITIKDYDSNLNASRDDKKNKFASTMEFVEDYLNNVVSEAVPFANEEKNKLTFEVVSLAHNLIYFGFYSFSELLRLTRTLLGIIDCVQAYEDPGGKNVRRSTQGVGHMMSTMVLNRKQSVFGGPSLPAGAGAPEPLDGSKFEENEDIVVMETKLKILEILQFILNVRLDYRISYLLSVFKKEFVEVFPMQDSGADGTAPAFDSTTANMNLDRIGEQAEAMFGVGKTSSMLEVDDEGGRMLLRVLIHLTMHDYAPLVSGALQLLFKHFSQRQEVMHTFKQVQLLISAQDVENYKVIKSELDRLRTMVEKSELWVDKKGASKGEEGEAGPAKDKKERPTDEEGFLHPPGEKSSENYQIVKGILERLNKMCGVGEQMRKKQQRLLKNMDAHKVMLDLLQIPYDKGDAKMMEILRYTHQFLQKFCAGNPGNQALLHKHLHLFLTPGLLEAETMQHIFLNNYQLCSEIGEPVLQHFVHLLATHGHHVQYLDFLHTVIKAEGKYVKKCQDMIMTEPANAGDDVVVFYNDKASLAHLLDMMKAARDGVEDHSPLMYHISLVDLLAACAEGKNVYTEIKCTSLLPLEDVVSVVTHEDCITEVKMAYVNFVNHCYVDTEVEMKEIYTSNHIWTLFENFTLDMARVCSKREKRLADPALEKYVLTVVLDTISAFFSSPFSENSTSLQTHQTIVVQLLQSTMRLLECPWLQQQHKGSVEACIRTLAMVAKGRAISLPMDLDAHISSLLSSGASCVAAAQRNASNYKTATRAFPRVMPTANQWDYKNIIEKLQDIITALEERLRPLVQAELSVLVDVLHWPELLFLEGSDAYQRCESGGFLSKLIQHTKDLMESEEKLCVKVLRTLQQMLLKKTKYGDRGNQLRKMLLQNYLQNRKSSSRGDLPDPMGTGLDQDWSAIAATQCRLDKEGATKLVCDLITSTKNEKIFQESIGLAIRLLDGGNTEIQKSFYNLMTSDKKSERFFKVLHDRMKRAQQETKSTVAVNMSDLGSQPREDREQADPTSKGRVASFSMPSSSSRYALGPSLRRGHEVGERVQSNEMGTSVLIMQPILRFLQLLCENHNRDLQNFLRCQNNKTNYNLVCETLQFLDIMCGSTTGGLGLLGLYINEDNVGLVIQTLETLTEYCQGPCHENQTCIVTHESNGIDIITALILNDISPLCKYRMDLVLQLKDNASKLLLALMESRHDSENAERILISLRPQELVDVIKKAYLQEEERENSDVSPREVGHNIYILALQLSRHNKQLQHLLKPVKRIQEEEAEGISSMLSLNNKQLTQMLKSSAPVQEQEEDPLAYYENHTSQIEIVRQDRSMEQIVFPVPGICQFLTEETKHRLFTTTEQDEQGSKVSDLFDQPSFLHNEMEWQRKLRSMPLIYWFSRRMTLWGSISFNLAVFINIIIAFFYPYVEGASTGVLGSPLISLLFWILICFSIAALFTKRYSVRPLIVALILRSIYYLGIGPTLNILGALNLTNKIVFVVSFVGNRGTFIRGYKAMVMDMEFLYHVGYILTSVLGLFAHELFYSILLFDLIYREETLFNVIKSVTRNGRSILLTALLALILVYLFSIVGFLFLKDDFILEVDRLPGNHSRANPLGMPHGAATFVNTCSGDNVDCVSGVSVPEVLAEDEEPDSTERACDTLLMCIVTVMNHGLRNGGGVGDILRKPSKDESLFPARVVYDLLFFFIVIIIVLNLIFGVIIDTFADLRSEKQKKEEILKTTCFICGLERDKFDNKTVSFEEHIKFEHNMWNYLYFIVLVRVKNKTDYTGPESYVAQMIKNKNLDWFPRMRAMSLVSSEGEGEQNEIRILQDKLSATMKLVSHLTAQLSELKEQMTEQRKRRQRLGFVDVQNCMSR

Compound	IC50 [nM]
O=P(O)(O)O[C@@H]1[C@@H](O)[C@@H](OP(=O)(O)O)[C@@H](OP(=O)(O)O)[C@H](O)[C@H]1OP(=O)(O)O	13.4
O=P(O)(O)O[C@@H]1[C@@H](O)[C@H](OP(=O)(O)O)[C@@H](OP(=O)(O)O)[C@H](O)[C@@H]1OP(=O)(O)O	598
